The results in this text go back to US20250304576A1 (Cancer Research Technology Limited, priority 2022, published 2025).

In one test the target is T1, Recombinant IKKα (Homo sapiens, UniProt O15111).
T1 construct: purchased Millipore, Dundee, UK
T1 sequence (O15111 1-745): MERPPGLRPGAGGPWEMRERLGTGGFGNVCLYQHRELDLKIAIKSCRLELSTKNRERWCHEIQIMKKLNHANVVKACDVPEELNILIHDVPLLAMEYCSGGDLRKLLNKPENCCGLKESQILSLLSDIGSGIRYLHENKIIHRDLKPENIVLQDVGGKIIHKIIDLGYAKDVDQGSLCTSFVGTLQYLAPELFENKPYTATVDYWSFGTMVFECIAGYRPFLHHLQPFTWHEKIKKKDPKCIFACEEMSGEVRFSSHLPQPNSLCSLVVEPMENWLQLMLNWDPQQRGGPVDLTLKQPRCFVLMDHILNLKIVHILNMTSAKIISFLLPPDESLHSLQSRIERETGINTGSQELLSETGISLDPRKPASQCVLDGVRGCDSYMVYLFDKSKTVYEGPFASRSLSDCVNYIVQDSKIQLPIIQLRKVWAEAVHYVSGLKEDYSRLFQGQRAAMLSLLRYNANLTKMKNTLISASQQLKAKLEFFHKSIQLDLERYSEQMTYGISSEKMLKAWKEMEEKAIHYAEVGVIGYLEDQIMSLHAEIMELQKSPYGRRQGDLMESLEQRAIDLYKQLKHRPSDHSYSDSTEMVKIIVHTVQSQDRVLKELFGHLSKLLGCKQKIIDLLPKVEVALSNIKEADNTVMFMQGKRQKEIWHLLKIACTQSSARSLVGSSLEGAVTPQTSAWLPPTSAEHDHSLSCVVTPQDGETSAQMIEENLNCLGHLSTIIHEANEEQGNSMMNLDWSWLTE
Nature of the test: DELFIA IKKα kinase assay (apparent Ki, Cheng-Prusoff). It is filed as biochemical. How it is done: (§1) IKKα and IKKβ inhibitory activity was determined using three different assays: a dissociation enhanced ligand fluorescent immunoassay (DELFIA) based on the protocol of HTScan™ IKKβ Kinase Assay (Cell Signaling Technology, USA); an Adapta IKKα assay (performed by Life Technologies); a Z′-LYTE™ IKKβ assay (performed by Life Technologies).
(§2) Recombinant IKKα or IKKβ, 37 nM, (Millipore, Dundee, UK) was incubated with IηB-α (Ser32) (New England Biolabs, Hitchin, UK) biotinylated peptide substrate (0.375 μM) and 40 μM ATP in assay buffer (40 mM Tris-HCl (pH 7.5), 20 mM MgCl2, EDTA 1 mM, DTT 2 mM and BSA 0.01 mg/ml) in a V-well 96-well plate in the presence and absence of test compound. The assay plate was incubated for 60 minutes at 30° C. after which the kinase reaction was quenched by the addition of 50 mM EDTA, pH8. The resulting mixture was transferred to a streptavidin coated 96-well plate (Perkin Elmer, Beaconsfield, UK) and incubated for 1 hour at 30° C. to immobilise the substrate peptide. After three washes with wash buffer (0.01 M phosphate buffered saline (PBS), 0.05% Tween −20, pH 7.4) a primary antibody against the phosphorylated substrate (phospho-IηB-a) (Ser32/36) (5A5) Mouse mAb (New England Biolabs, Hitchin, UK) (1:1000 dilution with 1% bovine serum albumin (BSA) in wash buffer) was added and incubated at 37° C. for 2 h.
(§3) After a further three washes, a secondary europiated antibody (Eu-N1 labelled anti-mouse IgG, (Perkin Elmer, Beaconsfield, UK) diluted 1:500 in 1% BSA/wash buffer) was added and incubated at 30° C. for 30 minutes. After a further five washes, DELFIA enhancement solution—(Perkin Elmer, Beaconsfield UK) was added and allowed to incubate for 10 min at room temperature, protected from light, to facilitate the chemifluorescent detection. The relative fluorescence units (RFU) signal were measured on a Wallac Victor 1420 multilabel counter (Perkin Elmer, Beaconsfield, UK), in time-resolved fluorescence mode. The counter was set at an excitation wavelength of 340 nm with a 400 μs delay before detecting emitted light at 615 nm. The apparent Ki of the […] was calculated for each compound using the Cheng-Prusoff Equation.
(§4) The IKKα and IKKβ figures quoted in non-italicised form are from the DELFIA assay described above.

The next test has as its target T2, Recombinant IKKβ (Homo sapiens, UniProt O14920).
T2 construct: purchased Millipore, Dundee, UK
T2 sequence (O14920 1-756): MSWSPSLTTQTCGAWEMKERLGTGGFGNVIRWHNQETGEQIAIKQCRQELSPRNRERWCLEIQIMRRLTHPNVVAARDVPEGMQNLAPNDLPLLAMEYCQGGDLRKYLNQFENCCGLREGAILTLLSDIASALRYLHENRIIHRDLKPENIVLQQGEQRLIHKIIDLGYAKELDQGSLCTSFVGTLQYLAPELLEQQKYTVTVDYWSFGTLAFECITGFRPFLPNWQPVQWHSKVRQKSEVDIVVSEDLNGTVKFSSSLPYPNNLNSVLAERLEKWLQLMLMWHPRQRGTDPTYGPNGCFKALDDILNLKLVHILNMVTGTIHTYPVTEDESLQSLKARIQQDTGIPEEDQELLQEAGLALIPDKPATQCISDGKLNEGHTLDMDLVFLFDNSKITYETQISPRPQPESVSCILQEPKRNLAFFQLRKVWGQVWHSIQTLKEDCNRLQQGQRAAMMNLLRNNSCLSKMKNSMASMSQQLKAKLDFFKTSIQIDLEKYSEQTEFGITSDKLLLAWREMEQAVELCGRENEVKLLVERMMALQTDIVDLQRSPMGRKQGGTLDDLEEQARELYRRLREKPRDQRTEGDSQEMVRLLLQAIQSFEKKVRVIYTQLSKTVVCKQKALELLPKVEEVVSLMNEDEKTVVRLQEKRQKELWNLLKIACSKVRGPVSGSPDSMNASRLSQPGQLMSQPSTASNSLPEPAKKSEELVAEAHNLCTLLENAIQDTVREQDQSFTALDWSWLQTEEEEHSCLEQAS
The test is described as follows: DELFIA IKKβ kinase assay (apparent Ki, Cheng-Prusoff). Format: biochemical. Particulars: non-italicised figure: DELFIA assay. The method, then: as §1, §2, §3, §4

[1] abbreviates: non-italicised figure: DELFIA assay.
Where [2] appears, read: DELFIA assay (first line of an example).

In the case of `Nc1cc(-c2cc(Cl)c3[nH]nc(N)c3c2)ccn1` [Example 1, 5-(2-Aminopyridin-4-yl)-7-chloro-1H-indazol-3-amine], the Ki on Recombinant IKKα (setting [1]) is 55 nM; at Recombinant IKKβ, 880 nM.

Take `Cc1cc(-c2ccnc(N)c2)cc2c(N)n[nH]c12` [Example 2, 5-(2-Aminopyridin-4-yl)-7-methyl-1H-indazol-3-amine]: the results for the Ki at Recombinant IKKα (setting [1]) and on Recombinant IKKβ were 72 nM and 461 nM, respectively.

With `Nc1cc(-c2cc(C(F)(F)F)c3[nH]nc(N)c3c2)ccn1` [Example 3, 5-(2-Aminopyridin-4-yl)-7-(trifluoromethyl)-1H-indazol-3-amine], the Ki at Recombinant IKKα (setting [1]) worked out at 38 nM; at Recombinant IKKβ, 194 nM.

For the compound `Nc1n[nH]c2c(Cl)cc(-c3ccnc4[nH]ccc34)cc12` [Example 4, 7-Chloro-5-(1H-pyrrolo[2,3-b]pyridin-4-yl)-1H-indazol-3-amine], the Ki on Recombinant IKKα (setting [1]) came out at 4 nM; on Recombinant IKKβ, 93 nM.

With `Nc1n[nH]c2c(Br)cc(-c3ccnc4[nH]ccc34)cc12` [Example 5, 7-Bromo-5-(1H-pyrrolo[2,3-b]pyridin-4-yl)-1H-indazol-3-amine], the Ki at Recombinant IKKα (setting [1]) amounted to 6 nM; at Recombinant IKKβ, 26 nM.

`C#Cc1cc(-c2ccnc3[nH]ccc23)cc2c(N)n[nH]c12` [Example 6, 7-Ethynyl-5-(1H-pyrrolo[2,3-b]pyridin-4-yl)-1H-indazol-3-amine]: the Ki on Recombinant IKKα (setting [1]) worked out at 26 nM; on Recombinant IKKβ it was 137 nM.

With `Nc1n[nH]c2c(-c3ccccc3)cc(-c3ccnc4[nH]ccc34)cc12` [Example 7, 7-Phenyl-5-(1H-pyrrolo[2,3-b]pyridin-4-yl)-1H-indazol-3-amine], the Ki on Recombinant IKKα (setting [1]) is 35 nM; at Recombinant IKKβ, 1260 nM.

In the case of `Cc1cc2c(-c3ccc4[nH]nc(N)c4c3)ccnc2[nH]1` [Example 8, 5-(2-Methyl-1H-pyrrolo[2,3-b]pyridin-4-yl)-1H-indazol-3-amine], the Ki at Recombinant IKKα (setting [1]) worked out at 2 nM; on Recombinant IKKβ it was 33 nM.

In the case of `CC(C)(C)c1cc2c(-c3ccc4[nH]nc(N)c4c3)ccnc2[nH]1` [Example 9, 2-(Tert-butyl)-4-(3-amino-1H-indazol-5-yl)-7-azaindole], the Ki at Recombinant IKKα (setting [1]) was 19 nM; at Recombinant IKKβ it was 109 nM.

As to `Nc1n[nH]c2ccc(-c3ccnc4[nH]c(C(=O)O)cc34)cc12` [Example 10, 4-(3-Amino-1H-indazol-5-yl)-1H-pyrrolo[2,3-b]pyridine-2-carboxylic acid], the Ki on Recombinant IKKα (setting [1]) came out at 5 nM; on Recombinant IKKβ, 335 nM.

Consider `Nc1n[nH]c2c(Br)cc(-c3ncnc4[nH]ccc34)cc12` [Example 11, 7-Bromo-5-(7H-pyrrolo[2,3-d]pyrimidin-4-yl)-1H-indazol-3-amine], for which the figures for the Ki at Recombinant IKKα (setting [1]) and on Recombinant IKKβ were 39 nM and 258 nM, respectively.

Turning to `CCNc1cc(-c2ccc3[nH]nc(N)c3c2)ccn1` [Example 12, 5-[2-(Ethylamino)pyridin-4-yl]-1H-indazol-3-amine], the Ki on Recombinant IKKα (setting [1]) turned out to be 8 nM; on Recombinant IKKβ, 38 nM.

`CCCNc1cc(-c2ccc3[nH]nc(N)c3c2)ccn1` [Example 13, 5-(2-(Propylamino)pyridin-4-yl)-1H-indazol-3-amine]: the Ki at Recombinant IKKα (setting [1]) came to 49 nM; at Recombinant IKKβ, 251 nM.

For the compound `CC(C)Nc1cc(-c2ccc3[nH]nc(N)c3c2)ccn1` [Example 14, 5-(2-(Isopropylamino)pyridin-4-yl)-1H-indazol-3-amine], the Ki on Recombinant IKKα (setting [1]) stood at 76 nM; at Recombinant IKKβ it was 587 nM.

In the case of `Nc1nccc(-c2ccc3[nH]nc(N)c3c2)c1CCCCO` [Example 101, 4-(2-Amino-4-(3-amino-1H-indazol-5-yl)pyridin-3-yl)butan-1-ol], the Ki at Recombinant IKKα (setting [1]) was 5580 nM.

For the compound `Nc1nccc(-c2ccc3[nH]nc(N)c3c2)c1CCC1(O)CCCCC1` [Example 102, 1-(2-(2-Amino-4-(3-amino-1H-indazol-5-yl)pyridin-3-yl)ethyl)cyclohexan-1-ol], the Ki on Recombinant IKKα (setting [1]) was found to be 8980 nM.

On to `Nc1nccc(-c2ccc3[nH]nc(N)c3c2)c1CCCCCO` [Example 103, 5-(2-Amino-4-(3-amino-1H-indazol-5-yl)pyridin-3-yl)pentan-1-ol], for which, on Recombinant IKKα (setting [1]), the Ki stood at 24800 nM.

Regarding `CC(C)(C)C#Cc1cc(-c2ccnc(N)n2)cc2c(N)n[nH]c12` [Example 143, 5-(2-Aminopyrimidin-4-yl)-7-(3,3-dimethylbut-1-yn-1-yl)-1H-indazol-3-amine], at Recombinant IKKα (setting [1]), the Ki was found to be 517 nM.

For `CC(C)(C)C#Cc1cc(-c2cc(N)nc(F)c2)cc2c(N)n[nH]c12` [Example 150, 5-(2-Amino-6-fluoropyridin-4-yl)-7-(3,3-dimethylbut-1-yn-1-yl)-1H-indazol-3-amine], on Recombinant IKKα (setting [1]), the Ki amounted to 573 nM.

With `CC(C)(C)C#Cc1cc(-c2cc(N)nc(N)c2)cc2c(N)n[nH]c12` [Example 151, 4-(3-Amino-7-(3,3-dimethylbut-1-yn-1-yl)-1H-indazol-5-yl)pyridine-2,6-diamine], at Recombinant IKKα (setting [1]), the Ki is 931 nM.

In the case of `CC1(C#Cc2cc(-c3ccnc(NC4CC4)c3)cc3c(N)n[nH]c23)COC1` [Example 176, 5-(2-(Cyclopropylamino)pyridine-4-yl)-7-((3-methyloxetan-3-yl)ethynyl)-1H-indazol-3-amine], the Ki on Recombinant IKKα (setting [1]) worked out at 19 nM.

`CC(=O)Nc1cc(-c2cc(C#Cc3ccccc3)c3[nH]nc(N)c3c2)ccn1` [Example 178, N-(4-(3-Amino-7-(phenylethynyl)-1H-indazol-5-yl)pyridin-2-yl)acetamide]: the Ki on Recombinant IKKα (setting [1]) is 22 nM.

Regarding `CC(C)(C)C#Cc1cc(-c2ccnc(NS(C)(=O)=O)c2)cc2c(N)n[nH]c12` [Example 193, N-(4-(3-Amino-7-(3,3-dimethylbut-1-yn-1-yl)-1H-indazol-5-yl)pyridine-2-yl)methanesulfonamide], the Ki on Recombinant IKKα (setting [2]) came out at 5520 nM.

As to `CC(=O)Nc1cc(-c2cc(C#CC(C)(C)C)c3[nH]nc(N)c3c2)cc(F)n1` [Example 195, N-(4-(3-amino-7-(3,3-dimethylbut-1-yn-1-yl)-1H-indazol-5-yl)-6-fluoropyridin-2-yl)acetamide], the Ki on Recombinant IKKα (setting [2]) turned out to be 21800 nM.

For the compound `CC(C)(C)C#Cc1cc(-c2ccnc3[nH]c(CN4CCOCC4)cc23)cc2c(N)n[nH]c12` [Example 279, 7-(3,3-Dimethylbut-1-yn-1-yl)-5-(2-(morpholinomethyl)-1H-pyrrolo[2,3-b]pyridin-4-yl)-1H-indazol-3-amine], the Ki at Recombinant IKKα (setting [2]) turned out to be 13 nM.
